Patent US20050075375A1 (priority 2003, published 2005)
Where two headings read alike, the source gives them in different places.

Tested on: monocistronic NK5.1 HCV replicon in Huh7 cells
Assay: HCV replicon assay, monocistronic replicon cell line
Format: cell-based, hepatitis C virus
Conditions: Hepatitis C virus, read-out: Mono EC50 Median
Text: HCV Replicon Assays (Replicon EC50 (μM))
HCV replication can be measured by a replicon assay such as described by Vrolijk et al, J. Virol. Methods 110:201(2003), which is hereby incorporated in its entirety by reference. The method was implemented as follows.
Monocistronic Replicon Cell Line:
Human hepatocyte Huh7 cells containing the monocistronic NK5.1 replicon were obtained from Ralf Bartenschlager at the University of Mainz, Germany. These cells were maintained under hygromycin selection and passaged when 80-90% confluent.
This cell line contains an autonomously replicating RNA element (replicon) incorporating the non-structural HCV elements necessary for replication, and upon which the survival of the replicon in the cell depends. This replicon contains a single internal ribosome entry site (HCV IRES). Inhibition of any of the critical HCV finctions by a compound leads to loss of the replicon as measured by HCV replicon RNA copy number reduction. The amount of HCV RNA present following a standard incubation with a compound is a measure of the anti-HCV activity of the compound. The assay was conducted by preparing sufficient 96-well plates containing these cells, wherein cells are seeded at 6000 cells/well in a 96-well plate, in 200 μl of final media volume. Cells were then incubated for 24 hours at 37 C., 5% CO2, and 95% humidity before compound was added. Six point half-log concentration response assays were conducted to determine potency/EC50 of Formula I compounds to inhibit HCV replicon replication. The final percent DMSO acceptable in this assay system is 0.6%. Compounds were diluted in media in an appropriate format and 5 μl of each drug dilution is added to each well. Cells were then incubated with compounds for 3 days at 37 C., 5% CO2, and 95% humidity. Following the three day incubation period, plates were washed twice with phosphate buffered saline to remove media and cells were lysed with Qiagen extraction buffer. RNA was extracted and isolated with the Qiagen RNAeasy kit according to the manufacturer's protocol (Qiagen). TaqMan One-Step RT-PCR was used in conjunction with an ABI 7700 Sequence Detector (Applied Biosystems) for the quantitation and analysis of HCV replicon RNA copy number. A GAPDH probe was used for internal normalization. The ratio of HCV RNA to cellular GAPDH RNA was determined and compared to the DMSO-only treated control, and the ratio of HCV RNA/GAPDH RNA was used for an EC50 determination and as a measure of specificity for inhibition of the HCV replicon.

[1] = Huh-7, monocistronic NK5.1 HCV replicon in Huh7 cells, median value
[2] = Huh-7, 72 h, table T3 (compounds 471-640), monocistronic replicon in Huh7 cells, 3 days incubation, HCV RNA/GAPDH RNA by TaqMan RT-PCR
[3] = Huh-7, 72 h, Table 1, monocistronic replicon in Huh7 cells, 3 days incubation, HCV RNA/GAPDH RNA by TaqMan RT-PCR

SMILES	EC50 [1]	EC50 [2]	EC50 [3]
Cc1cccnc1-c1noc(-c2cc(O)ccc2OCc2ccccc2)n1 [Compound 267, 4-Benzyloxy-3-[3-(3-methyl-pyridin-2-yl)-[1,2,4]oxadiazol-5-yl]-phenol]	15.9 µM		
Oc1ccccc1-c1nc(-c2ncccn2)n[nH]1 [Compound 569, 2-(5-pyrimidin-2-yl-2H-[1,2,4]triazol-3-yl)-phenol]		> 32 µM	
Cc1cccnc1-c1cc(-c2cc(Br)ccc2O)no1 [Compound 131, 4-Bromo-2-[5-(3-methyl-pyridin-2-yl)-isoxazol-3-yl]-phenol]			4.5 µM
Fc1cc(-c2nc(-c3cnccc3C(F)(F)F)n[nH]2)ccc1-c1ccccc1 [Compound 418, 3-[5-(2-Fluoro-biphenyl-4-yl)-1H-[1,2,4]triazol-3-yl]-4-trifluoromethyl-pyridine]	17 µM		
Oc1ccc2ccccc2c1-c1nc(-c2ccoc2)no1 [Compound 285]	11 µM		
Oc1ccccc1-c1ccnn1-c1ccccn1 [Compound 44, 2-(2-Pyridin-2-yl-2H-pyrazol-3-yl)-phenol]			> 32 µM
FC(F)(F)c1ccncc1-c1n[nH]c(-c2cccc(Br)c2)n1 [Compound 474, 3-[5-(3-Bromo-phenyl)-1H-[1,2,4]triazol-3-yl]-4-trifluoromethyl-pyridine]		> 32 µM	
Oc1ccc(O)c(-c2nc(-c3ncccc3Br)n[nH]2)c1 [Compound 499, 2-[5-(3-Bromo-pyridin-2-yl)-2H-[1,2,4]triazol-3-yl]-4-Hydroxy-phenol]		6.2 µM	
Oc1ccc(Br)cc1-c1cc(-c2ncccc2C(F)(F)F)on1 [Compound 128, 4-Bromo-2-[5-(3-trifluoromethyl-pyridin-2-yl)-isoxazol-3-yl]-phenol]			> 32 µM
Oc1ccc(O)c(-c2nc(-c3cnccc3C(F)(F)F)n[nH]2)c1 [Compound 426, 4-Hydroxy-2-[5-(4-trifluoromethyl-pyridin-3-yl)-2H-[1,2,4]triazol-3-yl]-phenol]	12 µM		
CCOC(=O)c1cc(-c2ccc(OC)cc2)n(-c2ncccc2C(F)(F)F)n1 [Compound 57, 5-(4-Methoxy-phenyl)-1-(3-trifluoromethyl-pyridin-2-yl)-1H-pyrazole-3-carboxylic acid ethyl ester]			> 32 µM
O=[N+]([O-])c1cccnc1-c1noc(-c2cc(O)ccc2O)n1 [Compound 171, 2-[3-(3-Nitro-pyridin-2-yl)-[1,2,4]oxadiazol-5-yl]-benzene-1,4-diol]			5.4 µM
Cc1cccnc1-c1noc(-c2cccc([N+](=O)[O-])c2)n1 [Compound 181]			> 32 µM
c1ccc(-c2noc(-c3cccc4ccccc34)n2)nc1 [Compound 140, 2-(5-Naphthalen-1-yl-[1,2,4]oxadiazol-3-yl)-pyridine]			7.1 µM
CCN(CC)c1ccc(-c2nc(-c3ccccn3)n[nH]2)c(O)c1 [Compound 365, 5-Diethylamino-2-(5-pyridin-2-yl-2H-[1,2,4]triazol-3-yl)-phenol]	> 32 µM		
Oc1ccc(O)c(-c2nc(-c3ncccc3-c3ccccc3)no2)c1 [Compound 236, 2-[3-(3-Phenyl-pyridin-2-yl)-[1,2,4]oxadiazol-5-yl]-benzene-1,4-diol]	2.2 µM		2.2 µM
COc1cccc(-c2nc(-c3ccccn3)n[nH]2)c1O [Compound 362, 6-Methoxy-2-(5-pyridin-2-yl-2H-[1,2,4]triazol-3-yl)-phenol]	> 19 µM		
Cc1cccnc1-c1noc(-c2cc(Br)cc(Br)c2O)n1 [Compound 280, 2,4-Dibromo-6-[3-(3-methyl-pyridin-2-yl)-[1,2,4]oxadiazol-5-yl]-phenol]	7.4 µM		
Cc1ccc(O)c(-c2nc(-c3ccccn3)no2)c1 [Compound 172, 4-Methyl-2-(3-pyridin-2-yl-[1,2,4]oxadiazol-5-yl)-phenol]			6 µM
Oc1ccc2ccccc2c1-c1nc(-c2nccc3ccccc23)no1 [Compound 210, 1-(3-Isoquinolin-1-yl-[1,2,4]oxadiazol-5-yl)-naphthalen-2-ol]			2.4 µM
O=C(O)c1cc(-c2ccc3ccccc3c2)n(-c2ccccn2)n1 [Compound 74, 5-Naphthalen-2-yl-1-pyridin-2-yl-1H-pyrazole-3-carboxylic acid]			> 32 µM

SMILES	EC50 [1]	EC50 [2]	EC50 [3]
COc1cccc(-c2nc(-c3cnccc3C(F)(F)F)n[nH]2)c1 [Compound 427, 3-[5-(3-Methoxy-phenyl)-1H-[1,2,4]triazol-3-yl]-4-trifluoromethyl-pyridine]	> 19 µM		
Oc1ccccc1-c1nnc(-c2ccccc2)o1 [Compound 318, 2-(5-Phenyl-[1,3,4]oxadiazol-2-yl)-phenol]	14 µM		
Oc1ccccc1-c1nnc(-c2c(Cl)cccc2Cl)o1 [Compound 322, 2-[5-(2,6-Dichloro-phenyl)-[1,3,4]oxadiazol-2-yl]-phenol]	12 µM		
COc1cccc(-c2nc(-c3ncccc3C)nn2C)c1O [Compound 615, 6-Methoxy-2-[2-methyl-5-(3-methyl-pyridin-2-yl)-2H-[1,2,4]triazol-3-yl]-phenol]		18 µM	
COc1ccccc1-c1nnc(-c2ccccc2F)o1 [Compound 326, 2-(2-Fluoro-phenyl)-5-(2-methoxy-phenyl)-[1,3,4]oxadiazole]	> 32 µM		
Oc1c(Br)cc(Cl)cc1-c1nc(-c2ccccn2)n[nH]1 [Compound 621, 4-Chloro-6-bromo-2-(5-pyridin-2-yl-2H-[1,2,4]triazol-3-yl)-phenol]		0.5 µM	
COc1ccc2oc(=O)c3c(C)n(-c4ccccn4)nc3c2c1 [Compound 95]			5.8 µM
COc1ccc(OC)c(-c2nc(-c3nccc4ccccc34)n[nH]2)c1 [Compound 380]	> 19 µM		
CC(C)(C)c1ccc(O)c(-c2nc(-c3ncccn3)n[nH]2)c1 [Compound 559, 4-tert-Butyl-2-(5-pyrimidin-2-yl-2H-[1,2,4]triazol-3-yl)-phenol]		> 32 µM	
CN(C)c1ccc(-c2nc(-c3ncccc3-c3ccccc3)no2)c(O)c1 [Compound 231, 5-Dimethylamino-2-[3-(3-phenyl-pyridin-2-yl)-[1,2,4]oxadiazol-5-yl]-phenol]	2.4 µM		2.4 µM
O=[N+]([O-])c1ccccc1-c1nnc(-c2c(O)ccc3ccccc23)o1 [Compound 311, 1-[5-(2-Nitro-phenyl)-[1,3,4]oxadiazol-2-yl]-naphthalen-2-ol]	4 µM		
Cc1cccnc1-c1n[nH]c(-c2cc(F)ccc2O)n1 [Compound 443, 4-Fluoro-2-(5-(3-methyl-pyridin-2-yl)-2H-[1,2,4]triazol-3-yl)-phenol]	> 10 µM		
COc1cccnc1-c1noc(-c2cc(C)ccc2O)n1 [Compound 250, 2-[3-(3-Methoxy-pyridin-2-yl)-[1,2,4]oxadiazol-5-yl]-4-methyl-phenol]	2 µM		2 µM
Fc1ccccc1-c1nc(-c2ccccn2)n[nH]1 [Compound 434, 2-[5-(2-Fluoro-phenyl)-1H-[1,2,4]triazol-3-yl]-pyridine]	> 19 µM		
Fc1cc(-c2nc(-c3ccc(C(F)(F)F)cn3)n[nH]2)ccc1-c1ccccc1 [Compound 514, 2-[5-(2-Fluoro-biphenyl-4-yl)-1H-[1,2,4]triazol-3-yl]-5-trifluoromethyl-pyridine]		> 19 µM	
Cc1cccnc1-c1noc(-c2ccc(NC(=O)c3ccccc3)cc2O)n1 [Compound 289]	6.1 µM		
O=[N+]([O-])c1ccccc1-c1nnc(-c2ccccc2O)o1 [Compound 321, 2-[5-(2-Nitro-phenyl)-[1,3,4]oxadiazol-2-yl]-phenol]	> 32 µM		
CCOc1cccc(-c2nc(-c3ccc(C(F)(F)F)cn3)n[nH]2)c1O [Compound 512, 6-Ethoxy-2-[5-(5-trifluoromethyl-pyridin-2-yl)-2H-[1,2,4]triazol-3-yl]-phenol]		> 19 µM	
O=[N+]([O-])c1ccc(O)c(-c2nc(-c3ccccn3)n[nH]2)c1 [Compound 352, 4-Nitro-2-(5-pyridin-2-yl-2H-[1,2,4]triazol-3-yl)-phenol]	14 µM		
Cc1cc(-c2c(O)ccc3ccccc23)nn1-c1ccc(Cl)cc1 [Compound 18, 1-[1-(4-Chloro-phenyl)-5-methyl-1H-pyrazol-3-yl]-naphthalen-2-ol]			18 µM
Cc1cccnc1-c1n[nH]c(-c2c(O)ccc3ccccc23)n1 [Compound 461, 1-(5-(3-methyl-pyridin-2-yl)-2H-[1,2,4]triazol-3-yl)-naphthalen-2-ol]	6.9 µM		
